Measured values from PMC9699089 (Pathogens, 2022).

Legend:
[1] = system: Plasmodium falciparum CQ-resistant strain W2; assay: In vitro antiplasmodial activity, SYBR Green I fluorescence-based method, strain W2; assay type: cell-based; details: CQ-resistant strain W2, 48 h incubation, mean of three independent experiments, read-out: P. falciparum Strains IC50 Values W2
Method: (§1) The in vitro antiplasmodial activities were tested over concentrations ranging from 39 nM to 40 µM against culture-adapted Plasmodium falciparum reference strains 3D7 and W2. […] These two strains are obtained from the collection of the National Museum of Natural History (Paris, France). The parasites were cultivated in RPMI medium (Sigma Aldrich, Lyon, France) supplemented with 0.5% Albumax I (Life Technologies Corporation, Paisley, UK), hypoxanthine (Sigma Aldrich), and gentamicin (Sigma Aldrich) with human erythrocytes and were incubated at 37 °C in a candle jar, as described previously. The P. falciparum drug susceptibility test was carried out in 96-well flat bottom sterile plates in a final volume of 250 µL. After 48 h incubation period with the drugs, quantities of DNA in treated and control cultures of parasites in human erythrocytes were quantified using the SYBR Green I (Sigma Aldrich) fluorescence-based method. Briefly, after incubation, plates were frozen at -20 °C until use. Plates were then thawed for 2 h at room temperature, and 100 µL of each homogenized culture was transferred to a well of a 96-well flat bottom sterile black plate (Nunc, Inc.) that contained 100 µL of the SYBR Green I lysis buffer (2xSYBR Green, 20 mM Tris base pH 7.5, 5 mM EDTA, 0.008% w/v saponin, 0.08% w/v Triton X-100). […] Plates were incubated for 1 h at room temperature and then read on a fluorescence plate reader (Tecan, Austria) using excitation and emission wavelengths of 485 and 535 nm, respectively.

[2] = system: Plasmodium falciparum CQ-sensitive strain 3D7; assay: In vitro antiplasmodial activity, SYBR Green I fluorescence-based method, strain 3D7; assay type: cell-based; details: CQ-sensitive strain 3D7, 48 h incubation, mean of three independent experiments, read-out: P. falciparum Strains IC50 Values 3D7
Method: as §1

[3] = system: L. donovani (MHOM/IN/00/DEVI) promastigotes; assay: In vitro antileishmanial activity on promastigotes, MTT assay; assay type: cell-based; details: Leishmania donovani, 72 h incubation, mean +/- SD of three independent experiments
Method: L. donovani (MHOM/IN/00/DEVI) used in this study was provided by the CNR Leishmania (Montpellier, France). The effects of the tested compounds on the growth of L. donovani (MHOM/IN/00/DEVI) promastigotes were assessed by MTT assay. Briefly, promastigotes in log-phase in Schneider’s medium supplemented with 20% fetal calf serum (FCS), 2 mM L-glutamine and antibiotics (100 U/mL penicillin and 100 µg/mL streptomycin), were incubated at an average density of 10^6 parasites/mL in sterile 96-well plates with various concentrations of compounds previously dissolved in DMSO (final concentration less than 0.5% v/v), in duplicate. […] Duplicate assays were performed for each sample. After the 72 h incubation period at 27 °C, parasite metabolic activity was determined. Each well was microscopically examined for precipitate formation. To each well was added 10 µL of 10 mg/mL MTT [3-(4,5-dimethylthiazol-2-yl)-2,5-diphenyltetrazolium bromide)] solution followed by 4 h incubation time. The enzyme reaction was stopped by addition of 100 µL of 50% isopropanol/10% sodium dodecyl sulfate. Plates were vigorously shaken (300 rpm) for 10 min, and the absorbance was measured at 570 nm with 630 nm as reference wavelength in a BIOTEK ELx808 Absorbance Microplate Reader (Agilent Technologies, Les Ulis, France). […] IC50 of the parasite’s growth (half maximal inhibitory concentration or IC50 values) were then calculated from the obtained experimental results using a previously described regression program. IC50 values were calculated from three independent experiments.

[4] = system: T. brucei brucei AnTat 1.9; assay: In vitro antitrypanosomal activity, Alamar Blue assay; assay type: cell-based, Trypanosoma brucei brucei; details: Trypanosoma brucei, slender bloodstream trypomastigotes, AnTat 1.9 strain; mean +/- SD of three independent experiments; read-out: Trypanosoma brucei brucei IC50 Values Trypanos Antat 1.9
Method: The effects of the tested compounds on the growth of T. brucei brucei were assessed using an Alamar Blue® assay described by Räz et al. T. brucei brucei AnTat 1.9 ([…], Belgium) was cultured in MEM with Earle's salts, supplemented according to the protocol of Baltz et al. […] All doses were tested in duplicate. Appropriate controls treated with solvents 0.9% NaCl or DMSO or with suramin, pentamidine, eflornithine, and fexinidazole (reference drugs purchased from Sigma Aldrich and Fluorochem, UK) were added to each set of experiments. After 69 h incubation period at 37 °C, 10 μL of the viability marker Alamar Blue (Fisher) was added to each well, and the plates were incubated for 5 h. The plates were read in a PerkinElmer ENSPIRE (Germany) microplate reader using an excitation wavelength of 530 nm and an emission wavelength of 590 nm.

[5] = Cytotoxicity evaluation, MTT assay; assay type: cell-based, human; details: human
Method: These cells are a commonly used human hepatocarcinoma-derived cell line that has characteristics similar to those of primary hepatocytes. These cells express many hepatocyte-specific metabolic enzymes, thus enabling the cytotoxicity of tested product metabolites to be evaluated. […] Duplicate assays were performed for each sample. Each well was microscopically examined for precipitate formation before the medium was aspirated from the wells. After aspiration, 100 µL of MTT solution (0.5 mg/mL in medium without FCS) were then added to each well. […] The MTT solution was removed, and DMSO (100 µL) was added to dissolve the resulting blue formazan crystals. Plates were shaken vigorously (300 rpm) for 5 min. The absorbance was measured at 570 nm with 630 nm as reference wavelength in a BIO-TEK ELx808 Absorbance Microplate Reader. DMSO was used as blank and doxorubicin (Sigma Aldrich) as positive control. Cell viability was calculated as percentage of control (cells incubated without compound). The CC50 was determined from the dose-response curve using TableCurve 2D V5.0 software (Systat Software, Palo Alto, CA, USA).

[6] = system: Plasmodium telomeric sequence FPf1T G-quadruplex; assay: FRET melting assay, FPf1T; assay type: binding, Plasmodium falciparum; details: compound 2 μM, oligonucleotide 0.2 μM, K+ conditions
Method: (§2) These were performed with dual-labeled oligonucleotides mimicking the Plasmodium telomeric sequences FPf1T [FAM-5′(GGGTTTA)3-GGG3′-TAMRA] and FPf8T [FAM-5′(GGGTTCA)3GGG3′-TAMRA], the Trypanosoma 9 and 11 chromosomic sequence FTrypBT (also named FEBR1T) [FAM-5′[…]3′-TAMRA], the human telomeric sequence F21T [FAM-(GGGTTA)3-GGG3′-TAMRA] and the human duplex sequence FdxT [FAM5′-[…]-hexaethyleneglycol-[…]3′-TAMRA] [27, 31, 47]. The oligonucleotides were pre-folded in 10 mM lithium cacodylate buffer (pH 7.2), with 10 mM KCl and 90 mM LiCl (K^+ condition). The FAM emissions were recorded at 516 nm using a 492-nm excitation wavelength in the absence and presence of a single compound as a function of temperature (25 to 95 °C) in 96-well microplates using a Stratagene MX3000P real-time PCR device at a rate of 1 °C∙min-1. Data were normalized between 0 and 1, and the required temperature for half-denaturation of oligonucleotides corresponding to the emission value of 0.5 was taken as the Tm. Each experiment was performed in duplicate with 0.2 µM of labeled oligonucleotide and 2 µM of compound under K^+ condition. For each compound, three independent experiments were carried out.

[7] = system: Plasmodium telomeric sequence FPf8T G-quadruplex; assay: FRET melting assay, FPf8T; assay type: binding, Plasmodium falciparum; details: compound 2 μM, oligonucleotide 0.2 μM, K+ conditions
Method: as §2

[8] = system: Trypanosoma 9 and 11 chromosomic sequence FTrypBT (FEBR1T) G-quadruplex; assay: FRET melting assay, FtrypBT; assay type: binding, Trypanosoma brucei brucei; details: compound 2 μM, oligonucleotide 0.2 μM, K+ conditions
Method: as §2

[9] = system: human telomeric sequence F21T G-quadruplex; assay: FRET melting assay, F21T; assay type: binding; details: compound 2 μM, oligonucleotide 0.2 μM, K+ conditions
Method: as §2

[10] = system: human duplex sequence FdxT; assay: FRET melting assay, duplex control FdxT; assay type: binding; details: compound 2 μM, oligonucleotide 0.2 μM, K+ conditions
Method: as §2

SMILES	IC50 [1] [nM]	IC50 [2] [nM]	IC50 [3] [nM]	IC50 [4] [nM]	CC50 at 72 h [5] [nM]	ΔTm FPf1T [6] [°C]	ΔTm FPf8T [7] [°C]	ΔTm FtrypBT [8] [°C]	ΔTm F21T [9] [°C]	ΔTm FdxT [10] [°C]
CN(C)CCCNCc1cc(-c2ccccc2)c2ccc3c(-c4ccccc4)cc(CNCCCN(C)C)nc3c2n1 [Compound 1b, 2,9-Bis[(3-dimethylaminopropyl)aminomethyl]-4,7-diphenyl-1,10-phenanthroline]	6130 ± 1630	21200 ± 7720	> 12500	570 ± 70	5960 ± 200	7.4	7.9	8.7	12.8	−0.3
CN1CCN(CCCNCc2cc(-c3ccccc3)c3ccc4c(-c5ccccc5)cc(CNCCCN5CCN(C)CC5)nc4c3n2)CC1 [Compound 1f]	11300 ± 2930	21500 ± 4100	> 12500	970 ± 110	8620 ± 500	8.8	10.9	9.1	10.8	−0.5
c1ccc(-c2cc(CNCCCc3ccncc3)nc3c2ccc2c(-c4ccccc4)cc(CNCCCc4ccncc4)nc23)cc1 [Compound 1p]	145 ± 40	1020 ± 350	> 12500	650 ± 50	3040 ± 190	3.5	3.9	3.7	3.6	−1.1
c1ccc(-c2cc(CNCCCN3CCOCC3)nc3c2ccc2c(-c4ccccc4)cc(CNCCCN4CCOCC4)nc23)cc1 [Compound 1i]	40 ± 10	1450 ± 580	> 12500	290 ± 20	6290 ± 1060	6.7	6.7	6.0	8.2	−1.5
c1ccc(-c2cc(CNCCN3CCOCC3)nc3c2ccc2c(-c4ccccc4)cc(CNCCN4CCOCC4)nc23)cc1 [Compound 1h]	170 ± 50	670 ± 210	4500 ± 2200	220 ± 60	5890 ± 530	1.8	1.9	2.2	2.0	−0.9
c1ccc(-c2cc(CNCCc3cccnc3)nc3c2ccc2c(-c4ccccc4)cc(CNCCc4cccnc4)nc23)cc1 [Compound 1n]	2540 ± 360	710 ± 110	2670 ± 800	430 ± 30	3100 ± 190	2.9	5.3	5.2	4.6	−0.3
c1ccc(-c2cc(CNCCCN3CCCCC3)nc3c2ccc2c(-c4ccccc4)cc(CNCCCN4CCCCC4)nc23)cc1 [Compound 1k]	1650 ± 360	3180 ± 680	> 12500	770 ± 100	4290 ± 520	12.8	14.0	8.3	12.0	0.4
CN1CCN(CCNCc2cc(-c3ccccc3)c3ccc4c(-c5ccccc5)cc(CNCCN5CCN(C)CC5)nc4c3n2)CC1 [Compound 1e]	920 ± 180	2160 ± 320	> 12500	450 ± 30	10500 ± 1270	9.4	10.5	8.0	9.6	−1.6
CN1CCN(CCCCNCc2cc(-c3ccccc3)c3ccc4c(-c5ccccc5)cc(CNCCCCN5CCN(C)CC5)nc4c3n2)CC1 [Compound 1g]	2480 ± 490	8190 ± 3530	> 12500	960 ± 130	16800 ± 600	13.4	14.5	12.2	11.2	−0.5
